{"source": "paper PMC7002685", "about": "“Inhibition of vascular calcification by inositol phosphates derivatized with ethylene glycol oligomers” (Nature Communications, 2020)", "key": {"Muscarinic M1": {"target": "T1, Muscarinic M1 (Homo sapiens, UniProt P11229)", "T1 construct": "purchased Eurofins Panlabs Discovery Services Taiwan, Ltd", "T1 sequence (P11229 whole entry)": "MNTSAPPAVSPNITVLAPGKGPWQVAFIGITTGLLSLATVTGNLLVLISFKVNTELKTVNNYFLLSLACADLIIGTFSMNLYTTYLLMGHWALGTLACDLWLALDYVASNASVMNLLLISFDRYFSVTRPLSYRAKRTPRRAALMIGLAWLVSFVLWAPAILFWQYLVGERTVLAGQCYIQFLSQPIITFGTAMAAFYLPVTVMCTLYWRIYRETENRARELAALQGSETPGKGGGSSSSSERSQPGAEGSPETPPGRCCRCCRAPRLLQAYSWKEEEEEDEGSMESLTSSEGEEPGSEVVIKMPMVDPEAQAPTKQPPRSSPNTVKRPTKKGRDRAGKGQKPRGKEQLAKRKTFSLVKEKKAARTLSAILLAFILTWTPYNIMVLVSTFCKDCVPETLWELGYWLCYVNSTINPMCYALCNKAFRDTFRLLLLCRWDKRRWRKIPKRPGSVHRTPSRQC", "assay": "Off-target 252610", "type": "binding", "method": "(§1) The potential off-target activity of 10 µM (OEG2)2-IP4 was assessed against a panel of 87 enzymes, receptors, or ion channels that are used in standard safety pharmacology screens.\n(§2) 3.2. Off-target screening assay\n(§3) The experiments were conducted by a contract research organization (Eurofins Panlabs Discovery Services Taiwan, Ltd.) and details on the respective assays can be retrieved via the catalog number provided in Supplementary Table 11 from the company’s webpage\n(§4) (https://www.eurofinsdiscoveryservices.com/). […]\n(§5) At sacrifice the left tibia of animals of the rat model with dietary adenine/high-phosphate-induced uremia and VC was collected, fixed with 70% v/v EtOH and embedded in methyl methacrylate. The trabecular bone compartment is known to be the most metabolic active i.e. actively re-structured bone compartment in CKD. Therefore, histomorphometric and micro-computed tomography (µCT) analysis of bone was performed on the trabecular compartment. Tibial sections were Goldner-stained for histomorphometric analysis of the proximal metaphysis using the AxioVision Release 4.5 software, as […]\n(§6) described previously5. […]"}, "vascular calcification": {"tested_on": "vascular calcification", "assay": "Adenine and high-phosphate-diet-induced rat model of VC", "type": "in vivo, male Wistar rats", "method": "Uremia increases the risk for developing VC. Therefore, the effect of (OEG2)2-IP4 on the development of VC was investigated in a previously established adenine and high-phosphate-diet-induced rat model of VC that results in uremia and chronic renal failure. […] (OEG2)2-IP4 was administered via a s.c.-implanted osmotic pump at doses of 5, 15, or 50 mg/kg/day for 4 weeks, and treatment was initiated 1 week after the start of adenine supplementation. […] Animals in this model developed severe CKD (Supplementary Fig. 20), which was accompanied by substantial weight loss (Supplementary Fig. 21). No significant difference in the level of renal failure and body weight loss was observed between the different treatment groups, with the exception of creatinine at week 3 and serum phosphate at sacrifice in the 15 mg/kg/day group (Supplementary Fig. 20).\nThe inhibitory effect of (OEG2)2-IP4 on heart calcifications was significant starting at 15 mg/kg/day (Fig. 6b). The compound’s activity was also evident following von Kossa staining (Fig. 6c) on the thoracic part of the aorta, and quantification of the von Kossa-positive area (Fig. 6d). […] In the femoral artery, reduction in bulk calcium was insignificant for all tested groups, likely due to the low level of calcification detected in the vehicle control (Fig. 6f, Supplementary Table 9).\nMale Wistar rats (Charles River) were housed two per cage with free access to water and standard chow and submitted to a 12-h light/dark cycle. Compounds were administered and doses calculated using the salt form. Animals were randomly assigned to four groups of 12 animals each and given a high-phosphate (1.03%) diet for 2 weeks before starting a special diet to initiate uremia. Uremia/VC was induced in all animals by freely fed diet containing high-phosphate (0.92%), low-protein (2.5% instead of 19%), and adenine (0.75%) for 4 weeks. The diet was again switched to a high-phosphate (1.03%) diet for 1 week, after which rats were sacrificed.\nThe first group was treated with vehicle (double distilled (d.d.) water), the second, third, and fourth groups were treated with daily doses equivalent of 5, 15, and 50 mg/kg of (OEG2)2-IP4, respectively, in 2 mL d.d. water starting 1 week after the administration of the adenine diet. Compounds were delivered continuously for 4 weeks via osmotic pumps (type 2ML4; Alzet, Cupertino, CA, USA) implanted subcutaneously under anesthesia 1 week after the start of the adenine diet. Blood sampling for serum and plasma at baseline, week 1, and week 3 was performed in restrained, conscious animals. […] Serum samples were analyzed for creatinine according to the Jaffe method, calcium (using flame atomic absorption spectrometry[74]), and phosphate (DiaSys Diagnostic Systems, Holzheim, Germany) concentrations. In serum samples taken at sacrifice, the CPP-associated calcium was quantified by calculating the difference between total serum calcium (measured in serum supernatants after centrifugation at 3000 × g, RT, 15 min) and serum calcium after removing CPPs by centrifugation (16,000 × g and 4 °C for 120 min)[26]. In addition, serum aliquots were centrifuged (10,000 × g, 4 °C, 30 min) and T50’s were determined as described above. CPP size was monitored by hourly DLS measurements at 37 °C, after spiking cleared serum samples with calcium (10 mM) and phosphate (6 mM), for a total of 8 h[29].\nAt sacrifice, the heart, the abdominal aorta, left carotids, and femoral arteries were collected. The presence of calcification in each animal was evaluated on paraffin-embedded, von Kossa stained sections of the thoracic aorta (as described previously[74]), as well as by measurement of the total calcium content in the heart and vascular tissue samples by flame atomic absorption spectrometry."}, "Nicotinic Acetylcholine": {"tested_on": "Nicotinic Acetylcholine", "assay": "Off-target 258590", "type": "binding, Human", "details": "10 µM", "method": "as §1, §2, §3, §4, §5, §6"}, "Muscarinic M3": {"target": "T2, Muscarinic M3 (Homo sapiens, UniProt P20309)", "T2 construct": "purchased Eurofins Panlabs Discovery Services Taiwan, Ltd", "T2 sequence (P20309 whole entry)": "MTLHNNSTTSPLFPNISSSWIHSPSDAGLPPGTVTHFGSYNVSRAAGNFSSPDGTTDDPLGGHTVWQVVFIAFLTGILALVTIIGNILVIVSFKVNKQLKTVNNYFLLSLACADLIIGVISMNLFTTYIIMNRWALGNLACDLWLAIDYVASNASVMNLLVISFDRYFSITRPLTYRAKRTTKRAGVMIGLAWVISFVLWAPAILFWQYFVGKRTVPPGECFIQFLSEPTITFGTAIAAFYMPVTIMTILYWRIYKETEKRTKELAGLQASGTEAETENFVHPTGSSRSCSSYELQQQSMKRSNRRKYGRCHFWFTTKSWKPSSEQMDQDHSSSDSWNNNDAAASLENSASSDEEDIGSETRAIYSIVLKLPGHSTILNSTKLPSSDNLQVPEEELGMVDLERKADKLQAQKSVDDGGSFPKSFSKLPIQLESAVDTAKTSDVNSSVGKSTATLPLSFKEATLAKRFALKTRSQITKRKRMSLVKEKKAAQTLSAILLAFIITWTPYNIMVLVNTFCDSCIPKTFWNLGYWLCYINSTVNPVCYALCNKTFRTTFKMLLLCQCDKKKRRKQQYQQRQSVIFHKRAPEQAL", "assay": "Off-target 252810", "type": "binding", "method": "as §1, §2, §3, §4, §5, §6"}, "[1]": {"target": "T3, (Rattus norvegicus, UniProt P15823)", "T3 construct": "purchased Eurofins Panlabs Discovery Services Taiwan, Ltd", "T3 sequence (P15823 whole entry)": "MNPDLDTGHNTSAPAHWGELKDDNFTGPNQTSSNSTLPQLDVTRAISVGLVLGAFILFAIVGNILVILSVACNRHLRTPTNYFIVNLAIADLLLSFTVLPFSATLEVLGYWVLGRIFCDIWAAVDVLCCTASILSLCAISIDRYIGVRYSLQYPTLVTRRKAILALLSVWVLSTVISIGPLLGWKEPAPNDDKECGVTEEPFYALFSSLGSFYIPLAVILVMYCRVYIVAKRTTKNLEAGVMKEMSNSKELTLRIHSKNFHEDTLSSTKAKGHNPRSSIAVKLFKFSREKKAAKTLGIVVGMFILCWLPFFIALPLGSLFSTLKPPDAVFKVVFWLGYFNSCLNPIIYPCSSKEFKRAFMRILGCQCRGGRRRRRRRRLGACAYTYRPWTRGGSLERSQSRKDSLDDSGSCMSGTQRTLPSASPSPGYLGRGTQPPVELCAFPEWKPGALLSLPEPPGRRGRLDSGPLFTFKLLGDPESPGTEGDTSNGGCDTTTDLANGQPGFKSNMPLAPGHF", "assay": "Off-target 203200", "type": "binding", "method": "as §1, §2, §3, §4, §5, §6"}, "Endothelin ETA": {"target": "T4, Endothelin ETA (Homo sapiens, UniProt P25101)", "T4 construct": "purchased Eurofins Panlabs Discovery Services Taiwan, Ltd", "T4 sequence (P25101 21-427)": "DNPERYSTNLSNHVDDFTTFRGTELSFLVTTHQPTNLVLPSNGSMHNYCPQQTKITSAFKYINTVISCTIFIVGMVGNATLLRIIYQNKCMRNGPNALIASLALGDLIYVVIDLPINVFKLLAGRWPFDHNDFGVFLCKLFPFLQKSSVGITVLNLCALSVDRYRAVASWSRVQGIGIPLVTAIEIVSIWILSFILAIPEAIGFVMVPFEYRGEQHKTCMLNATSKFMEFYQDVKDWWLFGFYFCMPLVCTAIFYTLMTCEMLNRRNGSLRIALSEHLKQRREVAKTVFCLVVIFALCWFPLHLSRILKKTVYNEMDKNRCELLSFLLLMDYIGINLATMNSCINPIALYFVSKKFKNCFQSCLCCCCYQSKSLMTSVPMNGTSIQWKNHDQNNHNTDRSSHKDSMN", "assay": "Off-target 224010", "type": "binding", "method": "as §1, §2, §3, §4, §5, §6"}, "Melanocortin MC1": {"target": "T5, Melanocortin MC1 (Homo sapiens, UniProt Q01726)", "T5 construct": "purchased Eurofins Panlabs Discovery Services Taiwan, Ltd", "T5 sequence (Q01726 whole entry)": "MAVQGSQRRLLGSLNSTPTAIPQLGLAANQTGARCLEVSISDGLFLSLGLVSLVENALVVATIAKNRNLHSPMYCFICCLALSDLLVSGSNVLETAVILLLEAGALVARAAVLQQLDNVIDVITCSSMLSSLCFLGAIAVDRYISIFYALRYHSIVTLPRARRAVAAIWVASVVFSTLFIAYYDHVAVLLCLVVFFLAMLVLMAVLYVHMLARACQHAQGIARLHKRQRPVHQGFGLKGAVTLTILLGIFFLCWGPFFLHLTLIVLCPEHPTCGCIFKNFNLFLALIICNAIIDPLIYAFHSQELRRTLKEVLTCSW", "assay": "Off-target 251100 (MC1)", "type": "binding", "method": "as §1, §2, §3, §4, §5, §6"}, "Dopamine D2L": {"target": "T6, Dopamine D2L (Homo sapiens, UniProt P14416)", "T6 construct": "purchased Eurofins Panlabs Discovery Services Taiwan, Ltd", "T6 sequence (P14416 whole entry)": "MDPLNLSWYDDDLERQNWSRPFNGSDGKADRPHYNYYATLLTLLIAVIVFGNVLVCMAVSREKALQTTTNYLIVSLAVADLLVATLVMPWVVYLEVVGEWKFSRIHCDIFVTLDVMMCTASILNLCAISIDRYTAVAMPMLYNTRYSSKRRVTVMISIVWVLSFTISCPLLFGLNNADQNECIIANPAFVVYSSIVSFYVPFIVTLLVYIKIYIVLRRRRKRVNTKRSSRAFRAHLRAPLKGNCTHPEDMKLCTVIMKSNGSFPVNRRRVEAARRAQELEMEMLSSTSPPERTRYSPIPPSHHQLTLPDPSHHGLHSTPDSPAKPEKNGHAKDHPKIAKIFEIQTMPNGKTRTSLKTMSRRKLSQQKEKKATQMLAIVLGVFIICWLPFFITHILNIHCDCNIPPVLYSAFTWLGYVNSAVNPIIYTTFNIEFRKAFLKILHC", "assay": "Off-target 219500 (D2L)", "type": "binding", "method": "as §1, §2\n(§7) The experiments were conducted by a contract research organization (Eurofins Panlabs Discovery\n(§8) Services Taiwan, Ltd.) and details on the respective assays can be retrieved via the catalog number\n(§9) provided in Supplementary Table 11 from the company’s webpage\nas §4"}, "Phosphodiesterase PDE4": {"tested_on": "Phosphodiesterase PDE4", "assay": "Off-target 154000", "type": "biochemical, Human", "details": "10 µM", "method": "as §1, §2, §3, §4, §5, §6"}, "Progesterone PR-B": {"target": "T7, Progesterone PR-B (Homo sapiens, UniProt P06401)", "T7 construct": "purchased Eurofins Panlabs Discovery Services Taiwan, Ltd", "T7 sequence (P06401 whole entry)": "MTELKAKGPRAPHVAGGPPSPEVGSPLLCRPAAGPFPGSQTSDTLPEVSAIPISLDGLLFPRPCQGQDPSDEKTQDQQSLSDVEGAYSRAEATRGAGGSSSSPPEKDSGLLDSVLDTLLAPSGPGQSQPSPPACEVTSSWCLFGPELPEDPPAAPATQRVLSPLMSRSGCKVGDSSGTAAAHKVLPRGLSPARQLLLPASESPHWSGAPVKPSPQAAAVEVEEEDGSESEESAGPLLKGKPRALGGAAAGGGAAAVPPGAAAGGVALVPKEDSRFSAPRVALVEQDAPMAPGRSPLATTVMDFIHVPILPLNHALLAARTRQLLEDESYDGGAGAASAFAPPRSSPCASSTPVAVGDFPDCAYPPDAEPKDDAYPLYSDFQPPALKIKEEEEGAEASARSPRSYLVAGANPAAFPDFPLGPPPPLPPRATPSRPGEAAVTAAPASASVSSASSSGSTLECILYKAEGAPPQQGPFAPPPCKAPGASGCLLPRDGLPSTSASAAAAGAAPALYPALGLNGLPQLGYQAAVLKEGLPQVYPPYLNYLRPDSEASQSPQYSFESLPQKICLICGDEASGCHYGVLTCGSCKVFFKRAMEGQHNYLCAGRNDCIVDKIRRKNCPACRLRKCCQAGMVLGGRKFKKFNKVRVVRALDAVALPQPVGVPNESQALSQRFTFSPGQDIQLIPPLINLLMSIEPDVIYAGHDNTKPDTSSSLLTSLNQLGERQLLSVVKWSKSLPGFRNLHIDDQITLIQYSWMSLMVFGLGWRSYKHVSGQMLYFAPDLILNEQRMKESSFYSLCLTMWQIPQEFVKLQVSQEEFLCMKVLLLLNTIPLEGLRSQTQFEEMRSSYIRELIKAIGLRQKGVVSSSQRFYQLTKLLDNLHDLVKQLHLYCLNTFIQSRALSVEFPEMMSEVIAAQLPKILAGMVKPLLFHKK", "assay": "Off-target 299005", "type": "binding", "method": "as §1, §2, §3, §4, §5, §6"}, "Glutamate, NMDA, Glycine": {"target": "Glutamate, NMDA, Glycine (Rattus norvegicus, UniProt P35439)", "sequence (P35439 394-800 limits assumed)": "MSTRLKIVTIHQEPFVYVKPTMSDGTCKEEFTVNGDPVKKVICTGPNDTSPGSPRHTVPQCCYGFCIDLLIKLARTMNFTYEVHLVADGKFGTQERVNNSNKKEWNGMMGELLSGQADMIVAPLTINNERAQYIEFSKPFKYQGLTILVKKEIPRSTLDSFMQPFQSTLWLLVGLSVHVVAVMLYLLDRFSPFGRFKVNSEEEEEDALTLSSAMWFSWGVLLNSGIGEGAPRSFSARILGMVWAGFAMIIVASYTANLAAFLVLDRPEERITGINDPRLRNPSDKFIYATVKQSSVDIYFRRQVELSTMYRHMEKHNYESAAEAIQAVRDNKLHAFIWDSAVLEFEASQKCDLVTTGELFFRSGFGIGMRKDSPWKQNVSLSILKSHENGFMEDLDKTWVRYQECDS", "assay": "Off-target 232910", "type": "binding", "method": "as §1, §2, §7, §8, §9, §4"}, "[2]": {"target": "T8, Serotonin (5-Hydroxytryptamine) 5-HT2A (Homo sapiens, UniProt P28223)", "T8 construct": "purchased Eurofins Panlabs Discovery Services Taiwan, Ltd", "T8 sequence (P28223 whole entry)": "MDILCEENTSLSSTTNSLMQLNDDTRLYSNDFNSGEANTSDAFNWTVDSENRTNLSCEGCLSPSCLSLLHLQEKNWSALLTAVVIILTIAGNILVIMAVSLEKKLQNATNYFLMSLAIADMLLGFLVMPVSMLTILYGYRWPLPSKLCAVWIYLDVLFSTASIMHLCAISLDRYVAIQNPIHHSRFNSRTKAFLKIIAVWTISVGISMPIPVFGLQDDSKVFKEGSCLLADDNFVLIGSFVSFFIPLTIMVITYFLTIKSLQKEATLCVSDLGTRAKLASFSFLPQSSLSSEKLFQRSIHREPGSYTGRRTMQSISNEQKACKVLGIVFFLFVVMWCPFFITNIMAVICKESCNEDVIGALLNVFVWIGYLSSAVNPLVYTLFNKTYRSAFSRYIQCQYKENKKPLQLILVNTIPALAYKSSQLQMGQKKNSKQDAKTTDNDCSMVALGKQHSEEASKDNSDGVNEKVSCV", "assay": "Off-target 271650", "type": "binding", "method": "as §1, §2, §3, §4, §5, §6"}}, "data": [{"smiles": "COCCOCCO[C@@H]1[C@@H](OP(=O)(O)O)[C@H](OCCOCCOC)[C@@H](OP(=O)(O)O)[C@@H](OP(=O)(O)O)[C@H]1OP(=O)(O)O", "note": "[(OEG2)2-IP4, 4,6-Di-O-(methoxy-diethyleneglycol)-myo-inositol-1,2,3,5-tetrakis(phosphate)]", "values": [{"measurement": "inhibition at 10 µM", "setting": "Muscarinic M1", "value": -6, "unit": "%"}, {"measurement": "Calcium, A. abdominialis", "setting": "vascular calcification; 5 mg/kg/day", "value": "12.71 ± 11.66", "unit": "mg/g tissue"}, {"measurement": "Calcium, A. carotis", "setting": "vascular calcification; 5 mg/kg/day", "value": "11.06 ± 9.10", "unit": "mg/g tissue"}, {"measurement": "Calcium, A. femoralis", "setting": "vascular calcification; 5 mg/kg/day", "value": "4.47 ± 3.95", "unit": "mg/g tissue"}, {"measurement": "Calcium, Heart", "setting": "vascular calcification; 5 mg/kg/day", "value": "0.05 ± 0.03", "unit": "mg/g tissue"}, {"measurement": "Von Kossa positive area in the aorta thoracalis", "setting": "vascular calcification; 5 mg/kg/day", "value": "17.86 ± 12.46", "unit": "%"}, {"measurement": "Mortality (animals)", "setting": "vascular calcification; 5 mg/kg/day, s.c. osmotic pump, 4 weeks", "value": "0/12"}, {"measurement": "Calcium, A. abdominialis", "setting": "vascular calcification; 15 mg/kg/day", "value": "6.24 ± 3.70", "unit": "mg/g tissue"}, {"measurement": "Calcium, A. carotis", "setting": "vascular calcification; 15 mg/kg/day", "value": "5.07 ± 6.23", "unit": "mg/g tissue"}, {"measurement": "Calcium, A. femoralis", "setting": "vascular calcification; 15 mg/kg/day", "value": "4.14 ± 1.92", "unit": "mg/g tissue"}, {"measurement": "Calcium, Heart", "setting": "vascular calcification; 15 mg/kg/day", "value": "0.04 ± 0.01", "unit": "mg/g tissue"}, {"measurement": "Mortality (animals)", "setting": "vascular calcification; 15 mg/kg/day", "value": "1/12"}, {"measurement": "Von Kossa positive area in the aorta thoracalis", "setting": "vascular calcification; 15 mg/kg/day", "value": "14.35 ± 11.49", "unit": "%"}, {"measurement": "Calcium, A. abdominialis", "setting": "vascular calcification; 50 mg/kg/day", "value": "1.69 ± 1.80", "unit": "mg/g tissue"}, {"measurement": "Calcium, A. carotis", "setting": "vascular calcification; 50 mg/kg/day", "value": "0.84 ± 1.11", "unit": "mg/g tissue"}, {"measurement": "Calcium, A. femoralis", "setting": "vascular calcification; 50 mg/kg/day", "value": "2.01 ± 1.41", "unit": "mg/g tissue"}, {"measurement": "Calcium, Heart", "setting": "vascular calcification; 50 mg/kg/day", "value": "0.04 ± 0.02", "unit": "mg/g tissue"}, {"measurement": "Mortality (animals)", "setting": "vascular calcification; 50 mg/kg/day", "value": "1/12"}, {"measurement": "Von Kossa positive area in the aorta thoracalis", "setting": "vascular calcification; 50 mg/kg/day", "value": "2.72 ± 5.97", "unit": "%"}, {"measurement": "calcification in the carotid artery compared to the 5 and 15 mg/kg/day groups", "setting": "vascular calcification; 50 mg/kg/day", "value": "prevented calcification in the carotid artery"}, {"measurement": "calcemic status of the animals", "setting": "vascular calcification; 50 mg/kg/day for 4 weeks", "value": "not influenced"}, {"measurement": "bulk calcium in the abdominal aorta compared to vehicle", "setting": "vascular calcification; 5, 15, 50 mg/kg/day", "value": "trend in a dose-dependent reduction of bulk calcium"}, {"measurement": "reduction in bulk calcium in the femoral artery", "setting": "vascular calcification; all tested groups", "value": "insignificant"}, {"measurement": "dose from which inhibitory effect on heart calcifications was significant", "setting": "vascular calcification; rat, in vivo", "value": "≥ 15", "unit": "mg/kg/day"}, {"measurement": "% Inhibition", "setting": "Nicotinic Acetylcholine", "value": -5, "unit": "%"}, {"measurement": "inhibition at 10 µM", "setting": "Muscarinic M3", "value": -6, "unit": "%"}, {"measurement": "inhibition at 10 µM", "setting": "[1]", "value": 5, "unit": "%"}, {"measurement": "inhibition at 10 µM", "setting": "Endothelin ETA", "value": 8, "unit": "%"}, {"measurement": "inhibition at 10 µM", "setting": "Melanocortin MC1", "value": 9, "unit": "%"}, {"measurement": "inhibition at 10 µM", "setting": "Dopamine D2L", "value": -10, "unit": "%"}, {"measurement": "% Inhibition", "setting": "Phosphodiesterase PDE4", "value": 12, "unit": "%"}, {"measurement": "inhibition at 10 µM", "setting": "Progesterone PR-B", "value": -4, "unit": "%"}, {"measurement": "inhibition at 10 µM", "setting": "Glutamate, NMDA, Glycine", "value": 6, "unit": "%"}, {"measurement": "inhibition at 10 µM", "setting": "[2]", "value": -1, "unit": "%"}]}]}
